Measurements: PMC7686103 (Bioorganic & medicinal chemistry letters, 2020)

Key:
[1] = target: hCB2 receptors (Homo sapiens, UniProt P34972); test: [35S]GTPγS binding, modulation of G-protein activity in CHO-hCB2 cell membranes; assay type: biochemical; conditions: 10 μM
[2] = target: hCB1 receptors (Homo sapiens, UniProt P21554); test: [35S]GTPγS binding, modulation of G-protein activity in CHO-hCB1 cell membranes; assay type: biochemical; conditions: 10 μM
Sequence of hCB1 receptors (P21554 whole entry): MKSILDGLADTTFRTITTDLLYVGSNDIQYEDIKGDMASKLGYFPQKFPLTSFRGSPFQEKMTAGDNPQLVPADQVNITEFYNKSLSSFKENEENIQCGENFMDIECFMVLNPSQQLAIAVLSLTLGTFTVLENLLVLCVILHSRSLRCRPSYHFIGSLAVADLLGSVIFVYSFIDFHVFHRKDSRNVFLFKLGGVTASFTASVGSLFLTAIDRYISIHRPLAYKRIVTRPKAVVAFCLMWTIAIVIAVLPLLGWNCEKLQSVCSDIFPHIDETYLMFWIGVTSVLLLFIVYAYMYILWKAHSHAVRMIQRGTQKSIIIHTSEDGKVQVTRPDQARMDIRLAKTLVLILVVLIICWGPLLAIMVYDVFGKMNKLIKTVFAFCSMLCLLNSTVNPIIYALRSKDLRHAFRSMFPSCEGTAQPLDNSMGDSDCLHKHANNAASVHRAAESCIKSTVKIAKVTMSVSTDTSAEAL

Sequence of hCB2 receptors (P34972 whole entry): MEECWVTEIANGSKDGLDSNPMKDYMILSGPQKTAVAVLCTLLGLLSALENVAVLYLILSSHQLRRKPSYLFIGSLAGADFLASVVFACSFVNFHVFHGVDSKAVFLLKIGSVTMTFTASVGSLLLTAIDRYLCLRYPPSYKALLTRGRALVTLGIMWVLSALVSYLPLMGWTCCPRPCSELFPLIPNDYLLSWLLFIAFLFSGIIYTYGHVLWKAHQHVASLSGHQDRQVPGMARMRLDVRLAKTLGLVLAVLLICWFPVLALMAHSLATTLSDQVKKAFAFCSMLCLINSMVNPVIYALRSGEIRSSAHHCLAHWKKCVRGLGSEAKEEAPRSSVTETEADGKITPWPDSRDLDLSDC

Row | Compound | Intrinsic activity at hCB2 receptors (modulation of [35S]GTPγS binding) [1] | Intrinsic activity at hCB1 receptors (modulation of [35S]GTPγS binding) [2]
1 | O=C1/C(=C/c2cn(Cc3ccc(F)cc3)c3ncccc23)N2CCC1CC2 [Compound 8g] | partial agonist | neutral antagonist
2 | O=C1/C(=C/c2cn(Cc3ccccc3)c3ncccc23)N2CCC1CC2 [Compound 8a] | neutral antagonist | neutral antagonist
3 | O=C1/C(=C/c2cn(Cc3ccc(Br)cc3)c3ncccc23)N2CCC1CC2 [Compound 8f] | neutral antagonist | inverse agonist
4 | O=C1/C(=C/c2cn(Cc3ccc(Cl)cc3)c3ncccc23)N2CCC1CC2 [Compound 8b] | inverse agonist activity | inverse agonist activity
5 | COc1ccc(C(=O)c2c(C)n(CCN3CCOCC3)c3cc(I)ccc23)cc1 [AM-630, reference compound] | inverse agonist activity | –
